Results published in patent US20100297038A1, “Benzimidazole Derivatives And Their Use As Cooling Agents” (Givaudan S.A., priority 2008, published 2010).

assay: Cooling intensity: panelists taste aqueous solutions, compared with menthol at 2 ppm; type: in vivo, human; conditions: tasted by a small group of panelists

SMILES	Concentration with a cooling intensity similar to or slightly higher than that of a solution of menthol at 2 ppm
Cc1nc2ccccc2n1CCc1ccccc1 [Example 1, 2-methyl-1-phenethyl-1H-benzo[d]imidazole]	0.03 ppm
COc1ccc(CCn2c(C)nc3ccccc32)cc1 [Example 2, 1-(4-methoxyphenethyl)-2-methyl-1H-benzo[d]imidazole]	0.1 ppm
CC1CCC(C(C)C)C(O)C1 (stereo not shown) [I-Menthol, I-menthol]	2.0 ppm
CCNC(=O)C1CC(C)CCC1C(C)C (stereo not shown) [WS-3, N-ethyl p-menthanecarboxamide]	1.5 ppm
